Literature values in patent US12544428B2, “Controlled-release CNP agonists with reduced side-effects” (ASCENDIS PHARMA GROWTH DISORDERS A/S, priority 2016, dated 2026).
Bridge positions count the residues as written; N and C are the ends. Ends that are not written are not given here.

How the values were obtained:
[1] = after iv administration; cited from earlier work
[2] = Phase 1 study, healthy volunteers; cited from earlier work

Compound | half-life [1] [min] | hypotension [2]
CC[C@H](C)[C@@H]1NC(=O)[C@H](CCCNC(=N)N)NC(=O)[C@H](CC(=O)O)NC(=O)[C@H](CC(C)C)NC(=O)[C@H](CCCCN)NC(=O)[C@H](CC(C)C)NC(=O)CNC(=O)[C@H](Cc2ccccc2)NC(=O)[C@@H](NC(=O)CNC(=O)[C@H](CCCCN)NC(=O)[C@H](CO)NC(=O)[C@H](CC(C)C)NC(=O)CN)CSSC[C@@H](C(=O)O)NC(=O)CNC(=O)[C@H](CC(C)C)NC(=O)CNC(=O)[C@H](CO)NC(=O)[C@H](CCSC)NC(=O)[C@H](CO)NC(=O)CNC1=O [CNP-22] | 2 | 
BMN-111: a CNP variant with increased NEP resistance in development for the treatment of achondroplasia (PGQEHPNARKYKGANKKGLSKGCFGLKLDRIGSMSGLGC; disulfide 23-39; chains of the INN, looked up) |  | mild hypotension
